Experimental data from patent US10537541B2, “Treatment of focal segmental glomerular sclerosis (FSGS) using therapeutically effective oral doses of 10-nitro-9(E)-octadec-9-enoic acid” (Complexa, Inc., priority 2015, dated 2020).
Read-outs that look alike come from different tables or passages of the source.

Assay: Multiple ascending dose study in obese males: pharmacokinetics
Format: in vivo, human
Details: for plasma concentration Day 21 / plasma concentration Day 28: after 14 days dosing; for Tmax: male, human, plasma, oral, 450 mg, read-out: Median Tmax
Source text: The primary endpoints of this study included safety and tolerability, pharmacokinetics, and biomarkers. The safety and tolerability included physical examinations, adverse event (AE) reporting, vital signs (blood pressure, heart rate, respiratory rate), clinical laboratory values (hematology, biochemistry, and urinalysis) including serum magnesium and creatine phosphokinase (CPK), 12-lead electrocardiograms (ECGs) for safety assessments and QTcF measured on ECGs extracted from cardiac Holter monitoring. The pharmacokinetic measurements included maximum observed plasma drug concentration (Cmax), time to maximum plasma drug concentration (Tmax), terminal phase half-life (t½), area under the plasma drug concentration versus time curve (AUC0-last, AUC0-∞), clearance (CL/F), volume of distribution (Vd/F) and terminal elimination rate constant (λz).
This was a single-center, randomized, double-blind, placebo-controlled study of sequential multiple ascending doses of oral CXA-10 in obese male subjects. Eligible subjects included obese males age 19 to 57 years and BMI 27.0 to 39.5 kg/m^2. CXA-10 and placebo were provided as solutions in hard shell capsules. Three (3) cohorts of subjects were dosed once daily with CXA-10 for 14 days. The doses administered in this study were 25, 150 and 450 mg. Subjects enrolled in the highest dose level (450 mg) were administered 600 mg on day 1 then 450 mg for 13 days. This cohort (cohort 3) was given the option to receive an additional 450 mg dose on day 15 with a high fat (50%) breakfast.
Subjects remained at the unit until discharge on Day 15 after assessments were completed and reviewed. […] They remained in the unit until Day 16 (24 h after last dose on Day 15) before being discharged from the unit. The additional procedures on Day 15 and Day 16 were optional for subjects in cohort 3.
Full PK profiles were obtained on Days 1 and 14. For subjects in cohort 3 who participate in the additional procedures on Day 15, full PK profiles were obtained on Days 1, 14, and 15. An abbreviated PK profile could also be obtained for the highest dose cohort only on one additional day. The actual day of PK sampling coincided with the additional day of Holter monitoring for the highest dose cohort. Subjects returned on Day 21 and Day 28 for PK, safety, and biomarker assessments.

[1] = cohort 3, day 15 with high fat (50%) breakfast versus fasted

plasma concentration Day 21 (25 mg cohort): 0.17 ng/mL
plasma concentration Day 28 (25 mg cohort): 0 ng/mL
plasma concentration Day 21 (150 mg cohort): 0.33 ng/mL
plasma concentration Day 28 (150 mg cohort): (0.39 ng/mL
plasma concentration Day 21 (450 mg cohort): 0.38 ng/mL
plasma concentration Day 28 (450 mg cohort): 0.30 ng/mL
increase of AUC under fed conditions [1]: about 1.7 fold
increase of Cmax under fed conditions [1]: about 2 fold
Tmax (fasted conditions): 3 h
Tmax (fed conditions (high fat breakfast)): 6 h
SMILES: CCCCCCCC/C(=C\CCCCCCCC(=O)O)[N+](=O)[O-] [CXA-10, 10-nitro-9(E)-octadec-9-enoic acid]
pharmacokinetics profiles (dose proportionality, accumulation) (25, 150, 450 mg once daily, day 1 and day 14): dose proportional concentration-times with minimal accumulation
